Data as given in patent US9556156B2, “Compounds, their synthesis and their uses” (priority 2012, dated 2017).
Read-outs that look alike come from different tables or passages of the source.

Test system: Sprague Dawley (SD) rat
Format: in vivo
Protocol: The general anesthetic activity of Propofol novel drug compound 1004 was evaluated in rats. All animal experiments were performed as per CPCSEA guidelines. The studies were carried out in Sprague Dawley (SD) rat in the weight range […] by intravenous tail vein dosing over a period of 10 seconds. The formulations of the compound 1004 for IV dosing in rats were prepared in pre-mix PEG400 and saline. Formulations of 1004 equivalent to 5 mpk (14 mpk of compd. 1004) and 7.5 mpk (equivalent to 21 mpk of compound 1004) of parent drug Propofol were prepared in 15% PEG400 and 85% normal saline. The monitoring of distinguishable levels of sedation was started during the dosing period and continued till animals regained consciousness. The onset, duration of sleep and recovery time was recorded.

Row | Structure (SMILES) | Recovery (SD rat, IV tail vein, Propofol Eq. 7.5 mpk, vehicle 15% PEG400, 85% NS) | General Anesthesia (GA) (onset of GA, SD rat, IV tail vein over 10 seconds, Propofol Eq. 7.5 mpk, vehicle 15% PEG400, 85% NS) | General Anesthesia (GA) (rat, in vivo) | Recovery (rat, in vivo)
1 | CNC(=O)c1ccc[n+](COC(=O)Oc2c(C(C)C)cccc2C(C)C)c1.[I-] [Compound 1004, 1-(((2,6-diisopropylphenoxy)carbonyloxy)methyl)-3-(methylcarbamoyl)pyridinium iodide] | Complete | After 1 min |  | 
2 | CC(C)c1cccc(C(C)C)c1O [Propofol, 2,6-diisopropylphenol] |  |  | No GA | Complete
